In paper PMC12064818, “A general assay platform to study protein pharmacology using ligand-dependent structural dynamics” (Nature Communications, 2025) one finds IC50 data, which are given here for 66 molecules.

SMILES strings stand for the structures.

T1 sequence (P08659 whole entry, looked up): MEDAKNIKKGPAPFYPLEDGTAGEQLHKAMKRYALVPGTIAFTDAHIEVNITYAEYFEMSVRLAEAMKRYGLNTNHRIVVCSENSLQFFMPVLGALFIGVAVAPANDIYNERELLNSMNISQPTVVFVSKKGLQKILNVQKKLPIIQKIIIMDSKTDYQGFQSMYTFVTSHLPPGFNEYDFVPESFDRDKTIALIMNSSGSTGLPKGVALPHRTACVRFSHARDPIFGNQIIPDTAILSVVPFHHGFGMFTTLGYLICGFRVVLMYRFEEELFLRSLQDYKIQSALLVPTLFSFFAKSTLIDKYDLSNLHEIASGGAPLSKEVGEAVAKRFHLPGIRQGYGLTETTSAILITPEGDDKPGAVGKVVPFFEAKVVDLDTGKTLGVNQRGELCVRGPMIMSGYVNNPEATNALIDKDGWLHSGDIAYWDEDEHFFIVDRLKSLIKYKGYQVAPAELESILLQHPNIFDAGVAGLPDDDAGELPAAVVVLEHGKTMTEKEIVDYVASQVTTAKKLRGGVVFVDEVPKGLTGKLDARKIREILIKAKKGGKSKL

The experiment addresses T1, FLuc-C-HiBiT (Photinus pyralis, UniProt P08659).
T1 construct: firefly luciferase with C-terminal HiBiT tag, E. coli expressed
Description: biochemical. Particulars: enzyme activity, 10 uM ATP; read-out: IC50 or SDR50 (mM) / FLuc E. How it is done: The enzyme activity of FLuc-N-HiBiT, FLuc-C-HiBiT, and FLuc-C-NLuc was measured similar to P. pyralis firefly luciferase (FLuc) as previously described. […] Compounds and controls were added to each plate as described in Supplementary Data 8 with a Hornet pintool system (Wako Automation). Compounds were incubated with respective enzymes for 30–60 min at room temperature protected from light and covered by solid metal lid to prevent evaporation. […] Luciferin was incubated with FLuc enzyme for 5 min before FLuc activity was then measured on a ViewLux CCD imager (PerkinElmer), with exposure times up to ten seconds with medium to high gain settings. Data were normalized to average no enzyme control as 100% enzyme inhibition and average DMSO neutral control. See Supplementary Table 4 for additional details. As a proof-of-concept target, we appended the sensor protein or corresponding α-peptide to either the N- or C-terminus of the target protein firefly luciferase (FLuc), an ATP cofactor-dependent monooxygenase (Supplementary Fig. 1a) having a broad, well-characterized and accessible ligand pharmacology. For initial characterization of the SDR concept, either NLuc or the 11 amino acid HiBiT tag (α-peptide) and complementary 18 kDa LgBiT subunit (ω-fragment), which self-assemble to reconstitute functional NLuc enzyme[24] were tested. In contrast to the ATP-dependent bioluminescent FLuc enzyme, NLuc generates a bright bioluminescence in an ATP-independent manner from the direct oxidation of furimazine (Supplementary Fig. 1b). […] Next, FLuc-C-NLuc, FLuc-N-HiBiT or FLuc-C-HiBiT were assayed with the same inhibitor in an SDR assay format by monitoring bioluminescence from NLuc or its reconstitution by α-complementation with LgBiT. Measurements of NLuc activity were made either in the absence or presence of the FLuc ATP cofactor, as NLuc bioluminescence is ATP-independent.
Take `Cc1ccc(-c2nnc(SCc3ccccc3C#N)o2)cc1` [NCGC00103157-01]: the IC50 worked out at 2.21 µM.

As for `O=C1NCCCCCCN(Cc2ccncc2)[C@@H]2CN(C(=O)Nc3ccc4c(c3)OCCO4)CC[C@H]12` [NCGC00467232-01], the IC50 is 11.1 µM. With `Cc1ccc2[nH]c([C@H]3CCN(Cc4cccs4)C3)nc2c1` [NCGC00397946-01] the figure was 20.2 µM. With `Clc1ccc(Nc2ncc(-c3cccnc3)c3c2OCC3)cc1` [NCGC00412736-01] the figure was 18 µM; with `COc1ccc2cc(-c3nc4ccc(C(=O)O)cc4[nH]3)c(=O)oc2c1` [NCGC00138156-01], 0.0157 µM; with `COCCNC(=O)C1CCN(C(=O)c2nnn3c2COC(c2ccc(C)cc2)C3)CC1` (stereo not drawn) [NCGC00449559-01], 4.95 µM.

Regarding `C[C@H](C(=O)N(C)CCC#N)C1CC[C@@]2(C)Cc3sc(NC(=O)c4cccn4C)nc3[C@@H](C)[C@@H]2[C@H]1O` (stereo partly drawn) [NCGC00421252-01], the IC50 was found to be 7 µM. With `Fc1ccccc1Cc1cn2cc(-c3ccc(Cl)cc3)nc2s1` [NCGC00102106-01] the figure was 1.57 µM; with `Cc1ccc(-c2noc(-c3nc(C(C)C)no3)n2)cc1` [NCGC00450102-01], 11.1 µM. As for `Cc1ccc(/C=C/c2nc3ccccc3n2S(=O)(=O)c2ccc(Br)cc2)cc1` [NCGC00140607-01], the IC50 was 0.624 µM. Turning to `CN(C(=O)OC(C)(C)C)c1ccc(-c2nc3ccccc3s2)cc1` [NCGC00167619-02], the IC50 amounted to 0.0989 µM. Take `COCCN1CCNc2cc(-c3cccc(N(C)C)c3)ncc2C1` [NCGC00411224-01]: the IC50 amounted to 16.1 µM. The result for `O=C(NCCc1c[nH]cn1)c1ccc2nc(-c3ccc(F)cc3)cn2c1` [NCGC00444507-03] reads 14 µM; that for `COc1cc(OC)cc(C(=O)Nc2cc(-c3nc4ccccc4s3)ccc2OC)c1` [NCGC00102359-01], greater than 30 µM. The result for `Cc1ccc(-c2cc3c(=O)n(CCNC(=O)c4ccc(C)s4)ccn3n2)c(C)c1` [NCGC00456966-01] reads 7 µM; that for `Cc1c(C(=O)Nc2cccc(-c3nc4ccccc4s3)c2)oc2ccccc12` [NCGC00119181-01], greater than 30 µM; that for `COc1ccccc1NC(=O)Cn1c(C)ccc(NC(=O)Nc2ccc(C)cc2)c1=O` [NCGC00430778-01], 0.7 µM. The result for `C[S+](=O)([O-])Nc1ccc(-c2nc3ccccc3s2)cc1` [NCGC00118996-01] reads 2.21 µM. Take `Cc1nn(-c2ccc(C(C)(C)C)cc2)c(C)c1[C@@H]1C=C[C@@H](NC(=O)CCCC(=O)O)C1` [NCGC00400254-01]: the IC50 is 20.2 µM.

As for `O=C(CSc1nnc2[nH]c(=O)cc(-c3ccccc3)n12)Nc1ccc(OC(F)(F)F)cc1` [NCGC00136515-01], the IC50 is 7 µM. With `O=C(O)c1cccc(-c2noc(-c3cccc(C(F)(F)F)c3)n2)c1` [NCGC00168769-01] the figure was 0.0157 µM; with `Cc1ccc(C2=CC(c3ccccc3F)n3c(nc4ccccc43)N2)cc1C` (stereo not drawn) [NCGC00140809-01], 3.13 µM; with `O=C1c2cnc(-c3ccc(CO)cc3)nc2OCCN1CC1CC1` [NCGC00413563-01], 11.4 µM. The result for `O=C(Nc1nc2c(s1)CCCC2)c1ccccc1F` [NCGC00118438-01] reads 0.556 µM; that for `Cc1ccc2nc(-c3ccc(NC(=O)COc4ccccc4C(C)(C)C)cc3)sc2c1` [NCGC00098265-01], 14 µM. The result for `Cc1cc(-c2nc3cc(F)ccc3s2)ccc1NC(=O)[C@@H](N)CCCCN` [NCGC00379246-02] reads 2.48 µM; that for `Cc1cc(CNC(=O)CC2C=C[S+](=O)([O-])C2)c2[nH]c(-c3ccccc3)c(C)c2c1` (stereo not drawn) [NCGC00441154-01], 11.1 µM; that for `COc1ccc(CNC(=O)C[C@@H]2C[C@@H](C(C)C)[C@H](CNC(=O)c3cccnc3)C=C2C)cc1` [NCGC00394780-01], greater than 30 µM. With `CN(C)c1cccc(C(=O)NC2CCN(c3cc(-c4ccccc4)n[nH]3)C2)c1` (stereo not drawn) [NCGC00437846-01], the IC50 worked out at 7 µM.

In the case of `CC(C)(O)CCc1ccc(C(=O)NCCSc2ccccn2)cc1` [NCGC00435911-01], the IC50 is 17.6 µM. Regarding `COc1ccc(-c2noc([C@@H]3C[C@@H](O)CN3Cc3cccs3)n2)cc1` [NCGC00400674-01], the IC50 was 20.2 µM.

As for `COc1ccccc1NC(=O)CN1C(=O)CC(c2ccc(C)c(C)c2)=Nc2ccccc21` [NCGC00130405-01], the IC50 is 12.4 µM.

With `CC1CCN(C(=O)c2cc3c(s2)CCC(C(=O)O)C3)CC1` (stereo not drawn) [NCGC00432771-01], the IC50 was 14 µM.

Consider `Cc1ccc(NC(=O)N2CCCC(c3noc(COc4ccccc4)n3)C2)cc1C` (stereo not drawn) [NCGC00453299-01], for which the IC50 came out at 8.81 µM.

For `O=C(O)c1cccc(-c2noc(-c3ccc(F)cc3)n2)c1` [NCGC00168761-01], the IC50 came out at 0.00442 µM.

Turning to `COc1ccc(-c2cc3c(cn2)CN(C(C)=O)CCN3)cc1` [NCGC00411126-01], the IC50 amounted to 12.8 µM.

`Cc1cc(NCCc2cnccn2)nc(-c2ccccc2O)n1` [NCGC00445970-01]: the IC50 was greater than 30 µM. The result for `Cc1ccc(-n2ncc3c(N4CCCCC4)ncnc32)cc1` [NCGC00139024-01] reads 0.197 µM; that for `COc1ccc(C(=O)N2CCCC(c3nc(-c4ccccc4)no3)CCNC(=O)CC2)c(OC)n1` (stereo not drawn) [NCGC00465834-01], 11.1 µM.

With `O=C(Nc1ccc2c(c1)OCO2)c1cccc2c1CCN2C(=O)Nc1ccc(F)cc1` [NCGC00430184-01], the IC50 turned out to be 0.197 µM. With `CC[n+]1c(/C=C/N(C)c2ccccc2)n(-c2ccccc2)c2ccc(-c3nc4ccccc4s3)cc21` [NCGC00165744-02] the figure was 17.6 µM; with `CCOCC(=O)N1c2ccccc2CC1c1noc(C(C)C)n1` (stereo not drawn) [NCGC00471496-01], 12.4 µM; with `CC(C)(C)C1CCc2nc(NC(=O)c3cccc(Cl)c3)sc2C1` (stereo not drawn) [NCGC00119231-01], 2.48 µM. With `CC(C)(C)c1ccc(C(=O)Nc2ccc(C(O)[C@H]3COCC(=O)N3Cc3ccccc3)cc2)cc1` (stereo partly drawn) [NCGC00394950-01] the figure was greater than 30 µM; with `Cc1ccc(-c2cc3c(=O)n(CCNC(=O)C4CCCCC4)ccn3n2)c(C)c1` [NCGC00456958-01], 2.48 µM; with `Cc1nc[nH]c1CN1CCNc2cc(Nc3ccccc3)ncc2C1` [NCGC00411231-01], 18 µM. With `Nc1ncnc2c1ncn2[C@H]1O[C@H](CO)[C@@H](O)[C@@H]1O` [NCGC00262556-01] the figure was greater than 30 µM; with `Cc1ccc(-c2ncc3c(n2)OCCN(Cc2ccc(F)cc2F)C3=O)cc1` [NCGC00413538-01], greater than 30 µM; with `CCCc1ccc(OCc2ccc(C(=O)Nc3ccccc3C(=O)OC)o2)cc1` [NCGC00101032-01], 12.4 µM. As to `COc1cccc(Nc2ncc(-c3ccc(OC)nc3)c3c2OCC3)c1` [NCGC00412784-01], the IC50 is 20.2 µM. On to `COc1ccc(-c2noc(Nc3ccccc3)n2)cc1` [NCGC00422340-01], for which the IC50 is 2.21 µM. The result for `COc1cccc(CNC(=O)N2c3ccccc3CC2c2noc(C3CCOCC3)n2)c1` (stereo not drawn) [NCGC00471511-01] reads 9.89 µM; that for `CC(=O)Nc1cccc(-c2ccc(COc3ccc4c(cnn4CCC(=O)O)c3)cc2)c1` [NCGC00418146-01], 1.01 µM. The result for `Oc1ccc(-c2nc(C3CC3)nc3c2CCN(Cc2cccc(F)c2)CC3)cc1` [NCGC00480349-01] reads greater than 30 µM; that for `Nc1nc(N2CCC3(CC2)NC(=O)CC3C(=O)O)c2nc[nH]c2n1` (stereo not drawn) [NCGC00447244-01], greater than 30 µM; that for `c1ccc(-n2ncc3c(N4CCCCC4)ncnc32)cc1` [NCGC00081373-03], 0.881 µM.

In the case of `CC(C)(C)n1cc(-c2cc(C(=O)N3C[C@H]4CC[C@H]3C4)c3ccccc3n2)cn1` [NCGC00432050-01], the IC50 turned out to be 7 µM. With `Cc1cnc(CCNC(=O)Nc2ccc3c(c2)OCCO3)n1C1CC1` [NCGC00469576-01] the figure was 11.1 µM; with `COc1cccc(-n2cnc3c(N/N=C/c4ccncc4)ncnc32)c1` [NCGC00242129-02], 17.6 µM; with `Cc1ccc2nc(-c3ccc(NC(=O)COc4ccc(Br)cc4Br)cc3)sc2c1` [NCGC00098202-02], 3.51 µM.

For the molecule `Cc1ccc(C2Cn3nnc(C(=O)N4CCC(C(=O)NC5CC5)CC4)c3CO2)cc1` (stereo not drawn) [NCGC00449485-01], the IC50 was 7.85 µM. As for `Cc1c(C(=O)Nc2ccc(C(=O)O)cc2)nnn1-c1ccccc1` [NCGC00141304-01], the IC50 was 0.0785 µM. The result for `COc1ccc2cc(C3CN(C(=O)CCc4n[nH]c(C)n4)CCO3)ccc2c1` (stereo not drawn) [NCGC00430617-01] reads 9.89 µM. As for `CCCN1CCc2nc(C(=O)Nc3ccccc3)oc2CC1` [NCGC00413331-01], the IC50 was determined as 18 µM. With `O=C(Nc1cccc(-c2ccc(N3CCOCC3)nn2)c1)Nc1ccccc1F` [NCGC00427598-01] the figure was 2.79 µM; with `COc1ccc(NC(=O)Nc2nnc(C)s2)cc1` [NCGC00106652-01], 11.1 µM.
